Structures are written as SMILES. Counter-ions that a name gives are not always drawn.

These results are taken from patent US4560758A, “Process for preparing pyrrolo[1,2-a]imidazoles and imidazo[1,2-a]pyridines” (Pennwalt Corporation, priority 1984, dated 1985).

For assay [1], the system named is antibody secreting cells in the spleen. Put plainly: Kennedy Plaque Assay (humoral immune system depressed by 6-mercaptopurine; number of plaques). Format: in vivo. The following applies: for change in vivo at 6.25 mg/kg: ip, 60 mg/Kg of 6 MP plus 6.25 mg/Kg (i.p.) of compound, read-out: Percent Restoration (+) or Suppression (-). The method, then: In this assay, in which the in vitro model used was the Kennedy modification of the Jerne (or plaque) technique (J. C. Kennedy et al, Immunol., 20, p. 253 (1971)), the animal's humoral immune system is depressed artificially by the known immunosuppressant drug, 6-mercaptopurine (6-MP), and then the ability of a drug to either suppress it further or restore it towards normal is evaluated. The change in the number of plaques, which is a direct correlate of the change in the number of antibody secreting cells in the spleen, is used to measure this effect. For example, the compound of Example 11 results in greater than 100% restoration of the number of plaques and thus causes an immunoenhancement of the humoral system. In contrast, the compound of Example 28 results in about 24% further suppression of the number of plaques and thus behaves as an immunosuppressant.
of 6 MP plus 6.25 mg/Kg (i.p.)
^1 without 6MP treatment
^2 percent change from control (i.e., without 6MP)

The subject of another assay is mouse hepatitis virus. Briefly: Antiviral assay - hepatitis in mice. Format: in vivo. Particulars: once daily for 3 days; for Mean Liver Score: day 4, 0 (normal) to 4 (extreme discoloration); for Percent Survival: day 21. As to the method:
Female mice weighing approximately 21-24 grams were inoculated with 0.1 ml of a mouse liver suspension containing mouse hepatitis virus, which liver suspension is at a dilution of 10^-5.5. Starting twenty-four hours post-virus inoculation, the animals were intraperitoneally ("i.p.") or orally administered the test compound(s) once daily for 3 days. On day 4, one third to one half of each group of mice were sacrificed and their liver removed for examination. Each liver was scored and assigned a number from 0 (normal liver) to 4 (extreme discoloration). The mean liver score per group was computed. The number of animals surviving until termination of the study (day 21) was also recorded. Anti-hepatitis activity is evidenced by increased survivor numbers and improved liver scores.

The test system of the next assay is murine marcophage cells. Put plainly: Chemotaxis assay (migration of macrophages toward complement-derived chemoattractant). Format: cell-based. As to the method:
In this assay, done according to the methods of R. Synderman et al., Infection & Immunity, 11, p. 488-492 (1975) and M. S. Meltzer et al., J. Natl. Cancer Inst., 54, p. 795-799 (1975), the ability of a drug substance to influence the movement of cells responding to a stimulus induced by some foreign substance or injury is determined. This is vitro assay utilizes a chemoattractant, derived from a component of the immunological system known as complement, to induce murine marcophage cells to migrate toward it. The effect of a drug substance on such movements can be measured by counting the cells. […] For example, the compound of Example 15 stimulates migration by 35.6% at 10^-8 molar concentration and is thus immunoenhancing.

Where [2] appears, read: 12.5 mg/Kg i.p., control 2.6 (Examples 11, 16, 23), 3.4 (25, 26).
The mark [3] stands for this setting: 12.5 mg/Kg i.p., control 5% (Examples 11, 16, 23), 6% (25, 26).
Where [4] appears, read: 25 mg/Kg i.p., control 2.6 (Examples 11, 23), 3.4 (25, 26).
The mark [5] stands for this setting: 25 mg/Kg i.p., control 5% (Examples 11, 23), 6% (25, 26).

Take `COc1ccc(C2CN3CCC(Sc4ccccc4)C3=N2)cc1` (centres unmarked) [Example 8, 2,5,6,7-Tetrahydro-2-p-methoxyphenyl-7-phenylthio-3H-pyrrolo[1,2-a]imidazole hydrochloride]: the “percent change from control (i.e., without 6MP)” value in assay [1] (without 6MP treatment, 6.25 mg/Kg (i.p.) of compound) is reported as -36%.
With `c1ccc(SC2CCCN3CC(c4ccccc4)N=C23)cc1` (centres unmarked) [Example 11, 2,3,5,6,7,8-Hexahydro-2-phenyl-8-phenylthioimidazo[1,2-a]pyridine sulfate (1:1) salt], the “Mean Liver Score” value is recorded as 2.0 in the assay with mouse hepatitis virus (6.25 mg/Kg i.p., control 2.6); 1.8 in the assay with mouse hepatitis virus (setting [2]); 1.8 in the assay with mouse hepatitis virus (setting [4]). The “Percent Survival” value is listed as 10% in the assay with mouse hepatitis virus (6.25 mg/Kg i.p., control 5%); 40% in the assay with mouse hepatitis virus (setting [3]); 40% in the assay with mouse hepatitis virus (setting [5]). Besides, in assay [1], the change in vivo at 6.25 mg/kg stood at 125%. Moreover, in assay [1] (with 6-MP), the “restoration of the number of plaques” value was “greater than 100%”.
Regarding `c1ccc(SC2(Sc3ccccc3)CCCn3cc(-c4ccccc4)nc32)cc1` [Example 33, 5,6,7,8-Tetrahydro-2-phenyl-8,8-diphenylthio imidazo[1,2-a]pyridine], in assay [1], the change in vivo at 6.25 mg/kg amounted to 25%.
With `c1ccc(SC2CCN3CC(c4ccccc4)N=C23)cc1` (centres unmarked) [Example 2, 2,5,6,7-Tetrahydro-2-phenyl-7-phenyl-thio-3H-pyrrolo[1,2-a]imidazole hydrochloride], the change in vivo at 6.25 mg/kg in assay [1] stood at 29%.
In the case of `CCCCSC1CCN2CC(c3ccccc3)N=C12` (centres unmarked) [Example 7, 2,5,6,7-Tetrahydro-2-phenyl-7-n-butylthio-3H-pyrrolo[1,2-a]imidazole hydrochloride], the change in vivo at 6.25 mg/kg in assay [1] is -49%.
As to `COc1ccc(CSC2CCN3CC(c4ccccc4)N=C23)cc1` (centres unmarked) [Example 3, 2,5,6,7-Tetrahydro-2-phenyl-7-p-methoxybenzylthio-3H-pyrrolo[1,2-a]imidazole hydrochloride], the “Percent Inhibition (-) or Enhancement (+) of migration” value (from here on “Percent Inhibition (-) or Enhancement”) is on record as -94.9% in the assay on murine marcophage cells (10^-5 m), -64.5% in the assay on murine marcophage cells (10^-7 m), -43.0% with murine marcophage cells (10^-8 m) and -29.2% with murine marcophage cells (10^-9 m). Besides, in assay [1], the change in vivo at 6.25 mg/kg was found to be 108%.
Take `CSC1CCN2CC(c3ccccc3)N=C12` (centres unmarked) [Example 1, 2,5,6,7-Tetrahydro-2-phenyl-7-methylthio-3H-pyrrolo[1,2-a]imidazole hydrochloride]: the “Percent Inhibition (-) or Enhancement” value in the assay with murine marcophage cells (10^-5 m) is -25.4%; with murine marcophage cells (10^-7 m) it was -8.8%; with murine marcophage cells (10^-8 m) it was -17.5%; in the assay with murine marcophage cells (10^-9 m), -29.7%; with murine marcophage cells (10^-10 m) it was -68.2%; in the assay with murine marcophage cells (10^-11 m) it was -36.8%. In addition, in the assay on murine marcophage cells (Mus musculus, Macrophage, 10^-10 molar concentration, read-out: inhibits migration), the inhibition at 0.0001 µM was 68.2%. For the same molecule, in assay [1], the change in vivo at 6.25 mg/kg is 72%.
`[O-][S+](c1ccccc1)C1CCCN2CC(c3ccccc3)N=C12` (centres unmarked) [Example 28, 2,3,5,6,7,8-Hexahydro-2-phenyl-8-phenylsulfinylimidazo[1,2-a]pyridine sulfate]: the change in vivo at 6.25 mg/kg in assay [1] was -24%. For the same molecule, the “further suppression of the number of plaques” value in assay [1] (with 6-MP) is “about 24%”.
With `CSC1(SC)CCCN2CC(c3ccccc3)N=C21` (centres unmarked) [Example 16, 2,3,5,6,7,8-Hexahydro-2-phenyl-8,8-di(methylthio)imidazo[1,2-a]pyridine hydrochloride], the “Mean Liver Score” value in the assay on mouse hepatitis virus (6.25 mg/Kg i.p., control 2.6) is listed as 1.5; in the assay on mouse hepatitis virus (setting [2]), 2.0. For the same molecule, the “Percent Survival” value in the assay on mouse hepatitis virus (6.25 mg/Kg i.p., control 5%) came out at 60%; in the assay with mouse hepatitis virus (setting [3]) it was 90%. Moreover, in assay [1], the change in vivo at 6.25 mg/kg was -25%.
Take `COc1ccc(CSC2CCCN3CC(c4ccccc4)N=C23)cc1` (centres unmarked) [Example 15, 2,3,5,6,7,8-Hexahydro-2-phenyl-8-p-methoxybenzylthioimidazo[1,2-a]pyridinefumarate (1:1) salt]: the “Percent Inhibition (-) or Enhancement” value with murine marcophage cells (10^-5 m) was “+2.6%”; with murine marcophage cells (10^-7 m) it was “+30.1%”; in the assay on murine marcophage cells (10^-8 m) it was “+35.6%”; in the assay on murine marcophage cells (10^-9 m), “+31.8%”; in the assay on murine marcophage cells (10^-10 m), “+33.8%”; in the assay with murine marcophage cells (10^-11 m) it was -1.2%. Moreover, the activation at 0.01 µM in the assay with murine marcophage cells (Mus musculus, Macrophage, 10^-8 molar concentration, read-out: stimulates migration) was 35.6%. Besides, the change in vivo at 6.25 mg/kg in assay [1] is 54%.
`c1ccc(CSC2CCCN3CC(c4ccccc4)N=C23)cc1` (centres unmarked) [Example 14, 2,3,5,6,7,8-Hexahydro-2-phenyl-8-benzylthioimidazo[1,2-a]pyridine fumarate (1:1) salt]: the “Percent Inhibition (-) or Enhancement” value was -29.1% with murine marcophage cells (10^-5 m); -51.0% in the assay on murine marcophage cells (10^-7 m); -51.0% in the assay on murine marcophage cells (10^-8 m); -50.7% in the assay with murine marcophage cells (10^-9 m); -10.2% in the assay with murine marcophage cells (10^-10 m); -44.5% in the assay with murine marcophage cells (10^-11 m).
On to `CSC1CCCN2CC(c3ccccc3)N=C12` (centres unmarked) [Example 10, 2,3,5,6,7,8-Hexahydro-2-phenyl-8-methylthioimidazo[1,2-a]pyridine hydrochloride], for which the “Percent Inhibition (-) or Enhancement” value is recorded as -94.1% in the assay on murine marcophage cells (10^-5 m); -94.4% in the assay on murine marcophage cells (10^-7 m); -88.4% in the assay on murine marcophage cells (10^-8 m); -91.7% in the assay with murine marcophage cells (10^-9 m); -97.4% with murine marcophage cells (10^-10 m); -97.3% in the assay with murine marcophage cells (10^-11 m). For the same molecule, in assay [1], the change in vivo at 6.25 mg/kg worked out at 55%.
Turning to `Clc1ccc(SC2CCCN3CC(c4ccccc4)N=C23)cc1` (centres unmarked) [Example 13, 2,3,5,6,7,8-Hexahydro-2-phenyl-8-p-chlorophenylthioimidazo[1,2-a]pyridine sulfate (1:1) salt], the change in vivo at 6.25 mg/kg in assay [1] amounted to 103%.
Take `COC1(OC)CCN2CC(c3ccccc3)N=C21` (centres unmarked) [Example 25, 2,5,6,7-Tetrahydro-2-phenyl-7,7-dimethoxy-3H-pyrrolo[1,2-a]imidazole sulfate]: the “Mean Liver Score” value with mouse hepatitis virus (setting [2]) is on record as 2.6; in the assay on mouse hepatitis virus (setting [4]), 1.1; in the assay with mouse hepatitis virus (50 mg/Kg i.p., control 3.4), 1.2. The “Percent Survival” value is 0% with mouse hepatitis virus (setting [3]); 0% with mouse hepatitis virus (setting [5]); 0% in the assay on mouse hepatitis virus (50 mg/Kg i.p., control 6%).
As to `COC1(OC)CCCN2C1=NCC2c1ccccc1` (centres unmarked) [Example 26, 2,3,5,6,7,8-Hexahydro-3-phenyl-8,8-dimethoxy imidazo[1,2-a]pyridine hydrochloride], the “Mean Liver Score” value came out at 2.7 in the assay on mouse hepatitis virus (setting [2]) and 2.3 with mouse hepatitis virus (setting [4]). The “Percent Survival” value in the assay with mouse hepatitis virus (setting [3]) and in the assay on mouse hepatitis virus (setting [5]) was 0% in each case.
In the case of `Cc1ccc(SC2CCCN3CC(c4ccccc4)N=C23)cc1` (centres unmarked) [Example 12, 2,3,5,6,7,8-Hexahydro-2-phenyl-8-p-tolylthioimidazo[1,2-a]pyridine sulfate (1:1) salt], the change in vivo at 6.25 mg/kg in assay [1] worked out at 50%.
